In patent publication US20250177430A1, “Compositions Comprising NAD+ and Associated Methods of Treatment” (priority 2022, published 2025):

Legend:
[1] = test system: opiate withdrawal symptoms; assay: Treatment of opiate/heroin withdrawal patients, delivery by SphenoCath to the sphenopalatine foramen; format: in vivo, human
Text: A device called the SphenoCath has been used to administer medication to the sphenopalatine foramen. The SphenoCath is a curved flexible catheter with a semi-rigid retractable sheath overlaying the catheter attached to a syringe. The SphenoCath is inserted through the nostril, until the tip of the SphenoCath reaches the anterior roof of the nasal cavity. The sheath of the SphenoCath is retracted allowing the curved inner catheter to drop over the anterior aspect of the middle turbinate. With the head correctly positioned medication is reliably dispensed to the area of the membrane covering the sphenopalatine foramen, and then through absorption into the pterygopalatine fossa and the nerves contained therein.
At the eleventh treatment dexamethasone was added to the combination. […] The treatment including dexamethasone was repeated 2 more times.

[2] = test system: dissociative experience and discomfort; assay: Tolerability and dissociative effects in treated patients
Text: The individual components of the composition can be administered individually.

anxiety and depression = assay: Treatment of anxiety and depression patients, delivery by SphenoCath, subjective and family reports; format: in vivo, human; settings: Patient 2; single IV treatment, about 30 mg
Description: Patient continued treatment over the course of a six-month period on an as-needed basis, which ranged from twice a week to every other month.
Inventor and patient decided to begin with the fairly typical six treatment induction phase used by IV ketamine clinics, but deliver it using the SphenoCath to the sphenopalatine foramen.
The fourth treatment was 2 ml of the combination with concentrations of 80 mg/ml NAD+, 12.5 mg/ml ketamine, and 5 mg/ml. […] Several of the treatments included a rotation of the head. For example, the combination was administered to the Patient and the head was rotated 30 degrees to the right for 5 minutes, then 30 degrees to the left for 5 minutes and then neutral for 5 minutes. Other times the head was rotated to the right at 30 degrees for 5 minutes, then 30 degrees to the left for 5 minutes and then neutral for 5 minutes.
Patient 5 completed the GAD 7 and PHQ 9 screening tools before treatment and two weeks after completion of the series. […] Patient returned for “booster” treatments four months later. […] The treatment regime also included 30-degree rotation to the right for 5 minutes, then 30-degree rotation to the left for 5 minutes, finally neutral for 5 minutes.
The first treatment was 1.8 ml of the combination with concentrations of 55 mg/ml NAD+, 14 mg/ml ketamine, 3 mg/ml. […]

migraine and facial pain = settings: through the sphenopalatine foramen into the pterygopalatine fossa; inventor's patients

Q: With `NC(=O)c1ccc[n+]([C@@H]2O[C@H](COP(=O)([O-])OP(=O)(O)OC[C@H]3O[C@@H](n4cnc5c(N)ncnc54)[C@H](O)[C@@H]3O)[C@@H](O)[C@H]2O)c1` [NAD+] as the compound, how does the “effect of adding NAD+ on chemical dependency (withdrawal symptoms and cravings)” value ([1]; added to lidocaine, general observation) read?
A: significantly enhanced the effect on chemical dependency

Q: And the “patient experience on receiving the component individually” value ([2]; NAD+ administered individually)?
A: less pleasant and can lead to discomfort

Q: And the “effect on dissociative effects of the NMDA receptor antagonist” value ([2]; NAD+ in composition with lidocaine and ketamine)?
A: significantly diminishes the dissociative effects

Q: What does the source list for `CNC1(c2ccccc2Cl)CCCCC1=O` (centres unmarked) [ketamine]?
A: effect on mood (anxiety and depression): about the same as the intranasal treatments; patient experience with ketamine alone ([2]; IV and intranasal, compared with mixture of NAD+, lidocaine and ketamine): more intense and dissociative experience; patient experience of IV ketamine ([2]; Patient 2, IV at a ketamine clinic, stopped after about 30 mg): very dissociative and unpleasant experience; time until patient felt fine after discontinuation ([2]; Patient 2, single IV treatment, about 30 mg): 30 to 45 min; patient state after ketamine alone ([2]; Patient 4, 15 minutes after intranasal delivery to sphenopalatine foramen, slightly lower dose than in the combined treatment): very agitated and uncomfortable

Q: What does the source list for `CCN(CC)CC(=O)Nc1c(C)cccc1C` [lidocaine]?
A: opiate withdrawal symptoms ([1]; person, SphenoCath, treated twice 48 hours apart): noticeably improved; need for buprenorphine during withdrawal ([1]; person, buprenorphine was necessary for previous detox episodes): able to go through withdrawal without the use bupenophrine; treatment success in chronic/acute migraine, cluster headache, trigeminal and postherpetic neuralgia, post-concussion headache (migraine and facial pain): successful in most cases
